Species: Rattus norvegicus
Assay: DrugMatrix - Regimen: Daily Repeat
Type: toxicity, organism-based, Sprague-Dawley
Design: regimen Daily Repeat, gender Male, age 6-8 weeks
Details: in vivo, ip, route intraperitoneal, vehicle 100 % SALINE; for ABSOLUTE BASOPHIL / ABSOLUTE EOSINOPHIL / ABSOLUTE LYMPHOCYTE / ABSOLUTE MONOCYTE / ABSOLUTE SEGMENTED NEUTROPHIL / BASOPHIL / EOSINOPHIL / ERYTHROCYTE COUNT / HEMATOCRIT / HEMOGLOBIN / LEUKOCYTE COUNT / LYMPHOCYTE / MEAN CORPUSCULAR HEMOGLOBIN / MEAN CORPUSCULAR HEMOGLOBIN CONCENTRATION / MEAN CORPUSCULAR VOLUME / MONOCYTE / NEUTROPHIL / PLATELET COUNT: tissue Blood; for ALANINE AMINOTRANSFERASE / ALBUMIN / ALKALINE PHOSPHATASE / ASPARTATE AMINOTRANSFERASE / BLOOD UREA NITROGEN / CHLORIDE / CHOLESTEROL / CREATININE / GLUCOSE / LACTATE DEHYDROGENASE / LIPASE / PHOSPHORUS / POTASSIUM / SODIUM / TOTAL BILIRUBIN / TOTAL PROTEIN / URIC ACID / CREATINE PHOSPHOKINASE: tissue Plasma
[1] = 0 mg/kg, 120 h, dose level Control, time 5 day
[2] = 0 mg/kg, […], dose level Control, time 14 day
[3] = 0 mg/kg, […], dose level Control, time 28 day
[4] = 160 mg/kg, 120 h, dose level High, time 5 day

Molecule `NCC[C@H](O)C(=O)N[C@@H]1C[C@H](N)[C@@H](O[C@H]2O[C@H](CN)[C@@H](O)[C@H](O)[C@H]2O)[C@H](O)[C@H]1O[C@H]1O[C@H](CO)[C@@H](O)[C@H](N)[C@H]1O` [AMIKACIN] has an ABSOLUTE BASOPHIL [1] of 32 cells/µL, an ABSOLUTE EOSINOPHIL [1] of 110 cells/µL and an ABSOLUTE LYMPHOCYTE [1] of 6630 cells/µL. For the same molecule, the ABSOLUTE MONOCYTE [1] was 140 cells/µL, the ABSOLUTE SEGMENTED NEUTROPHIL [1] was 1170 cells/µL and the BASOPHIL [1] was 0.38%. The EOSINOPHIL [1] was 1.28%, the “ERYTHROCYTE COUNT” value [1] was 7.45 x10E6/uL and the HEMATOCRIT [1] was 45.74%. The HEMOGLOBIN [1] was 14.72 G/DL, the “LEUKOCYTE COUNT” value [1] was 8.11 x10E3/uL and the LYMPHOCYTE [1] was 81.3%. For the same molecule, the “MEAN CORPUSCULAR HEMOGLOBIN” value [1] was 19.76 pg, the “MEAN CORPUSCULAR HEMOGLOBIN CONCENTRATION” value [1] was 32.16 G/DL and the “MEAN CORPUSCULAR VOLUME” value [1] was 61.38 fL. For the same molecule, the MONOCYTE [1] was 1.76%, the NEUTROPHIL [1] was 14.9% and the “PLATELET COUNT” value [1] was 1322.4 x10E3/uL. The “ALANINE AMINOTRANSFERASE” value [1] was 25.8 u/L, the ALBUMIN [1] was 3.64 G/DL and the “ALKALINE PHOSPHATASE” value [1] was 233.6 u/L. For the same molecule, the “ASPARTATE AMINOTRANSFERASE” value [1] was 81.4 u/L, the “BLOOD UREA NITROGEN” value [1] was 14.4 mg/dL and the CHLORIDE [1] was 105.6 MEQ/L. It also gave a CHOLESTEROL [1] of 69.2 mg/dL, a CREATININE [1] of 0.56 mg/dL and a GLUCOSE [1] of 125.4 mg/dL. The “LACTATE DEHYDROGENASE” value [1] was 105.4 u/L, the LIPASE [1] was 22.4 u/L and the PHOSPHORUS [1] was 11.48 mg/dL. The POTASSIUM [1] was 5.52 MEQ/L, the SODIUM [1] was 147 MEQ/L and the “TOTAL BILIRUBIN” value [1] was 0.2 mg/dL. The “TOTAL PROTEIN” value [1] was 6.1 G/DL, the “URIC ACID” value [1] was 1.06 mg/dL and the ABSOLUTE BASOPHIL [2] was 130 cells/µL. The ABSOLUTE EOSINOPHIL [2] was 140 cells/µL, the ABSOLUTE LYMPHOCYTE [2] was 13500 cells/µL and the ABSOLUTE MONOCYTE [2] was 400 cells/µL. The ABSOLUTE SEGMENTED NEUTROPHIL [2] was 2330 cells/µL, the BASOPHIL [2] was 0.72% and the EOSINOPHIL [2] was 0.86%. The “ERYTHROCYTE COUNT” value [2] was 7.74 x10E6/uL, the HEMATOCRIT [2] was 45.98% and the HEMOGLOBIN [2] was 13.86 G/DL. The “LEUKOCYTE COUNT” value [2] was 16.61 x10E3/uL, the LYMPHOCYTE [2] was 81.34% and the “MEAN CORPUSCULAR HEMOGLOBIN” value [2] was 18 pg. For the same molecule, the “MEAN CORPUSCULAR HEMOGLOBIN CONCENTRATION” value [2] was 30.22 G/DL, the “MEAN CORPUSCULAR VOLUME” value [2] was 59.4 fL and the MONOCYTE [2] was 2.46%. For the same molecule, the NEUTROPHIL [2] was 14.14%, the “PLATELET COUNT” value [2] was 1445.5 x10E3/uL and the ABSOLUTE BASOPHIL [3] was 91 cells/µL. The ABSOLUTE EOSINOPHIL [3] was 110 cells/µL, the ABSOLUTE LYMPHOCYTE [3] was 9910 cells/µL and the ABSOLUTE MONOCYTE [3] was 210 cells/µL. The ABSOLUTE SEGMENTED NEUTROPHIL [3] was 1560 cells/µL, the BASOPHIL [3] was 0.77% and the EOSINOPHIL [3] was 0.92%. The “ERYTHROCYTE COUNT” value [3] was 8.21 x10E6/uL, the HEMATOCRIT [3] was 47.53% and the HEMOGLOBIN [3] was 15.65 G/DL. For the same molecule, the “LEUKOCYTE COUNT” value [3] was 11.91 x10E3/uL, the LYMPHOCYTE [3] was 83.34% and the “MEAN CORPUSCULAR HEMOGLOBIN” value [3] was 19.07 pg. The “MEAN CORPUSCULAR HEMOGLOBIN CONCENTRATION” value [3] was 32.93 G/DL, the “MEAN CORPUSCULAR VOLUME” value [3] was 57.9 fL and the MONOCYTE [3] was 1.68%. For the same molecule, the NEUTROPHIL [3] was 12.97%, the “PLATELET COUNT” value [3] was 1323.8 x10E3/uL and the “ALANINE AMINOTRANSFERASE” value [2] was 31.6 u/L. The ALBUMIN [2] was 3.66 G/DL, the “ALKALINE PHOSPHATASE” value [2] was 228.6 u/L and the “ASPARTATE AMINOTRANSFERASE” value [2] was 79.6 u/L. The “BLOOD UREA NITROGEN” value [2] was 11.2 mg/dL, the CHLORIDE [2] was 107 MEQ/L and the CHOLESTEROL [2] was 57 mg/dL. The “CREATINE PHOSPHOKINASE” value [2] was 233.6 u/L, the CREATININE [2] was 0.5 mg/dL and the GLUCOSE [2] was 124.4 mg/dL. For the same molecule, the “LACTATE DEHYDROGENASE” value [2] was 106.4 u/L, the LIPASE [2] was 24.4 u/L and the PHOSPHORUS [2] was 10.52 mg/dL. For the same molecule, the POTASSIUM [2] was 6.34 MEQ/L, the SODIUM [2] was 149.2 MEQ/L and the “TOTAL BILIRUBIN” value [2] was 0.2 mg/dL. The “TOTAL PROTEIN” value [2] was 6.48 G/DL, the “URIC ACID” value [2] was 0.94 mg/dL and the “ALANINE AMINOTRANSFERASE” value [3] was 30 u/L. The ALBUMIN [3] was 3.71 G/DL, the “ALKALINE PHOSPHATASE” value [3] was 186.8 u/L and the “ASPARTATE AMINOTRANSFERASE” value [3] was 78.2 u/L. For the same molecule, the “BLOOD UREA NITROGEN” value [3] was 14.2 mg/dL, the CHLORIDE [3] was 105.4 MEQ/L and the CHOLESTEROL [3] was 44.9 mg/dL. The “CREATINE PHOSPHOKINASE” value [3] was 334.3 u/L, the CREATININE [3] was 0.6 mg/dL and the GLUCOSE [3] was 147.2 mg/dL. The “LACTATE DEHYDROGENASE” value [3] was 123.1 u/L, the LIPASE [3] was 9.6 u/L and the PHOSPHORUS [3] was 10.01 mg/dL. The POTASSIUM [3] was 6.57 MEQ/L, the SODIUM [3] was 149.5 MEQ/L and the “TOTAL BILIRUBIN” value [3] was 0.21 mg/dL. For the same molecule, the “TOTAL PROTEIN” value [3] was 6.66 G/DL, the “URIC ACID” value [3] was 1.26 mg/dL and the ABSOLUTE BASOPHIL [4] was 42 cells/µL. For the same molecule, the ABSOLUTE EOSINOPHIL [4] was 76 cells/µL and the ABSOLUTE LYMPHOCYTE [4] was 7260 cells/µL.
